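How tested: cells in 96-well plates exposed to compound for 48 hours at five concentrations. GI50: concentration for 50% inhibition of growth. TGI marks complete inhibition of growth.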
How the values were obtained:
Assay in all cases: DTP human tumour cell line panel, 48 h
[1] = tested on: SF-539 CNS
[2] = tested on: A549 NSCLC
[3] = tested on: SK-MEL-5 melanoma
[4] = tested on: LOX IMVI melanoma
[5] = tested on: NCI-H226 lung
[6] = tested on: KM12 colon
[7] = tested on: CCRF-CEM leukemia
[8] = tested on: SF-268 CNS
[9] = tested on: T-47D breast
[10] = tested on: MDA-MB-231 breast

| Compound | TGI [1] | TGI [2] | TGI [3] | TGI [4] | TGI [5] | TGI [6] | TGI [7] | TGI [8] | GI50 [2] | GI50 [3] | GI50 [4] | GI50 [5] | GI50 [6] | GI50 [7] | GI50 [9] | TGI [9] | GI50 [8] | GI50 [1] | GI50 [10] | TGI [10] |
| --- | --- | --- | --- | --- | --- | --- | --- | --- | --- | --- | --- | --- | --- | --- | --- | --- | --- | --- | --- | --- |
| COC(=O)C1=Cc2c(OC)cc(OC)c(OC)c2[C@H](c2cc(OC)c(OC)cc2OC)C1C(=O)OC (stereo not given in full) | > 100 µM | > 100 µM | > 100 µM | > 100 µM | > 100 µM | > 100 µM | > 100 µM | > 100 µM |  |  |  |  |  |  |  |  |  |  |  |  |
| CC12C(=O)N(CCN)C(=O)C1C1c3ccccc3C2c2ccccc21 (stereo not given) | > 100 µM | > 100 µM | > 100 µM |  | > 100 µM | > 100 µM | > 100 µM | > 100 µM |  |  |  |  |  |  |  |  |  |  |  |  |
| COc1cccc(Nc2nccc(Nc3ccc4[nH]ncc4c3)n2)c1 |  | 3.74 µM | 2.47 µM | 3.19 µM | 4.46 µM | 4.81 µM | 4.56 µM | 5.89 µM | 1.71 µM | 1.22 µM | 1.44 µM | 1.82 µM | 1.64 µM | 0.901 µM | 1.05 µM | 3.12 µM | 1.86 µM |  |  |  |
| O=C1CCC(=O)C(C(=O)CCC(=O)Nc2cccc(Cl)c2)C1 (stereo not given) | > 100 µM | > 100 µM | > 100 µM | > 100 µM | > 100 µM | > 100 µM | > 100 µM |  |  |  |  |  |  |  |  |  |  |  |  |  |
| Cc1sc(/N=C2/NC(=O)CS2)nc1-c1nc(/N=C2/NC(=O)CS2)sc1C | > 50 µM | > 50 µM | > 50 µM | > 50 µM | > 50 µM | > 50 µM |  | > 50 µM | > 50 µM | 31.2 µM | > 50 µM | > 50 µM | 28.9 µM |  |  |  | 36.4 µM | > 50 µM | > 50 µM | > 50 µM |
| CC12OC3CC(O1)C1(C=O)C4CCC5(C)C(c6ccc(=O)oc6)CCC5(O)C4CCC1(C3)O2 (stereo not given) | 0.228 µM | 0.194 µM | 0.328 µM | 0.524 µM | 1.23 µM | 1.4 µM | 1.2 µM | 0.229 µM |  |  |  |  |  |  |  |  |  |  |  |  |
| CC(C)NC(=O)O/N=C1\CCC2[C@@H]3CC=C4C[C@@H](OC(=O)NC(C)C)CC[C@]4(C)C3CC[C@]12C (stereo not given in full) |  | 5.11 µM |  | 2.27 µM | > 100 µM | 3.73 µM | 5.03 µM | 3.22 µM |  |  |  |  |  |  |  |  |  |  |  |  |
| CC1=NN(c2ccccc2)C(=O)C1N=Nc1ccc(Br)c(C)c1 (stereo not given) | > 100 µM | > 100 µM | > 100 µM |  | > 100 µM | > 100 µM | > 100 µM |  |  |  |  |  |  |  |  |  |  |  |  |  |
| Cc1ccc(-c2cc(/C=N/O)on2)cc1 | > 100 µM | > 100 µM |  | > 100 µM | > 100 µM | > 100 µM | > 100 µM | > 100 µM | 51 µM |  | 53.3 µM | 36.2 µM | 35.6 µM | 46.9 µM | 29.5 µM | > 100 µM | > 100 µM | > 100 µM | > 100 µM | > 100 µM |
| CCc1oc2ccc(OC)c3c2c1C=CC=C3 | > 100 µM | > 100 µM | > 100 µM | > 100 µM | > 100 µM | > 100 µM | > 100 µM | > 100 µM |  |  |  |  |  |  |  |  |  |  |  |  |
| OC1C2C=CCC1CCC2 (stereo not given) | > 100 µM | > 100 µM | > 100 µM | > 100 µM | > 100 µM | > 100 µM | > 100 µM | > 100 µM |  |  |  |  |  |  |  |  |  |  |  |  |
| C=C(C)[C@@H]1CC[C@]2(C)[C@H](C=CC3=C4C[C@@](C)(CO)CC[C@]4(C)CC[C@]32C)[C@@]1(C)CCCN | 3.13 µM | 3.18 µM |  | 2.7 µM |  | 3.02 µM | 5.56 µM | 3.25 µM | 1.6 µM |  | 1.37 µM |  | 1.6 µM | 2.12 µM |  |  | 1.61 µM | 1.73 µM | 1.77 µM | 3.27 µM |
| CCC[CH2][Sn]1([CH2]CCC)[O]C(=O)c2cc(C)ccc2[O]1 | 1.66 µM | 3.32 µM | 2.11 µM | 1.13 µM | 3.37 µM | 2.7 µM | 0.561 µM | 0.959 µM | 1.92 µM | 0.854 µM | 0.309 µM | 1.85 µM | 1.15 µM | 0.167 µM |  |  | 0.268 µM | 0.521 µM |  |  |
| CC[C@H](C)[C@H](NC(=O)C12CC(NC(C)=O)(C1)C2)C(=O)N(C)[C@H](C[C@@H](OC(C)=O)c1nc(C(=O)N[C@@H](Cc2ccccc2)C[C@H](C)C(=O)OC)cs1)C(C)C | 1.15 µM | > 16.7 µM | 2.76 µM | > 16.7 µM | > 16.7 µM | > 16.7 µM | > 16.7 µM | > 16.7 µM | 0.907 µM | 0.0807 µM | 0.229 µM | > 7.53 µM | 0.296 µM | 0.273 µM |  |  | 0.809 µM | 0.438 µM | 0.439 µM | > 16.7 µM |
| CC[O-].CC[O-].O=C([CH-]C(=O)c1ccccc1)c1ccccc1.O=C([CH-]C(=O)c1ccccc1)c1ccccc1.[Ti+4] | > 100 µM | > 100 µM | > 100 µM | > 100 µM | > 100 µM | > 100 µM |  | > 100 µM | > 100 µM | > 100 µM | > 100 µM | 25.2 µM | > 100 µM |  |  |  | > 100 µM | 19.8 µM |  |  |
| Cc1cc2c(cc1C)[n+]([O-])c(-c1c(Cl)cccc1Cl)c(N)[n+]2[O-] | > 100 µM | 98.9 µM | 41.7 µM | > 100 µM | 74.4 µM | > 100 µM |  | > 100 µM |  |  |  |  |  |  |  |  |  |  |  |  |
| Cc1cc(C)c2[s+]snc2c1 | > 100 µM | > 100 µM | > 100 µM | > 100 µM | > 100 µM | > 100 µM | > 100 µM | > 100 µM |  |  |  |  |  |  |  |  |  |  |  |  |
| N#Cc1c(Oc2ccc(F)c(NC(=O)Cc3cccc(C(F)(F)F)c3)c2)ccc2nc(NC(=O)C3CC3)sc12 | > 27.2 µM | > 100 µM | 8.6 µM |  | > 100 µM | > 100 µM | > 100 µM | > 100 µM | 0.703 µM | 0.206 µM |  | 0.838 µM | 0.765 µM | 0.622 µM | 3.22 µM | > 100 µM | 1.35 µM | 0.436 µM | 0.422 µM | 6.26 µM |
| C[C@]12CCCC(=O)C1C[C@H](C(=O)O)CC2 (stereo not given in full) | > 100 µM | > 100 µM |  | > 100 µM | > 100 µM | > 100 µM | > 100 µM | > 100 µM |  |  |  |  |  |  |  |  |  |  |  |  |

— PubChem BioAssay (NCI)
